Data published in patent US20250051275A1, “PYRROLE DERIVATIVE OR PHARMACEUTICALLY OR SITOLOGICALLY ACCEPTABLE SALTS THEREOF, AND COMPOSITION FOR PREVENTION, AMELIORATION OR TREATMENT OF GASTROINTESTINAL DISORDERS COMPRISING SAME AS ACTIVE INGREDIENT” (HANA PHARM CO., LTD., priority 2021, published 2025).

Experiments:
[1] = Pharmacokinetics in rats according to deuterium substitution; assay type: in vivo; conditions: male rats, oral 10 mg/kg; for concentration at 0.5 h / concentration at 1 h / concentration at 2 h / concentration at 5 h / concentration at 8 h: Sprague-Dawley, rat, plasma, read-out: Blood concentration; for concentration at 0.5 h: 0.5 hr after administration; for concentration at 1 h: 1 hr after administration; for concentration at 2 h: 2 hr after administration; for concentration at 5 h: 5 hr after administration; for concentration at 8 h: 8 hr after administration
Method: In order to evaluate the impact on the deuterium substituent in terms of pharmacokinetics, the blood concentrations of Example 35 and Comparative Example 2 in rats were measured and compared. Six male rats (Sprague-Dawley Rats) were obtained, acclimatized, and then distributed into two groups with three rats per test group. As feed, irradiated solid feed was allowed to be freely consumed, and, as water, tap water disinfected with an ultraviolet sterilizer and micro-filtration device was placed in a polycarbonate drinking bottle and allowed to be freely consumed. Rats were raised in an animal breeding area maintained at a temperature of 23±3° C., with a relative humidity of 50±20%, a ventilation frequency of 10 to 15 times/hr, for a lighting time of 12 hours (lights on at 8 a.m. to lights off at 8 p.m.), and with an illuminance of 150 to 300 Lux.
Blood samples were obtained from the jugular vein at 0.5, 1, 2, 5, and 8 hours after drug administration, respectively. Blood samples were centrifuged (2 to 8° C., 3,200 g, 10 minutes) to obtain plasma. The amount of administered compound into the plasma sample was quantified by using LC-MS/MS.

[2] = test system: rats (Sprague-Dawley Rats); assay: Acute oral toxicity in rats; assay type: in vivo; conditions: female rats
From the text: An attempt was made to evaluate the acute toxicity of the compound of Example 7 on the fumarate form (Example 41). Twenty female rats (Sprague-Dawley Rats) were obtained, acclimatized, and distributed into a total of four groups, five rats per test group. As feed, irradiated solid feed was allowed to be freely consumed, and, as water, tap water disinfected with an ultraviolet sterilizer and micro-filtration device was placed in a polycarbonate drinking bottle and allowed to be freely consumed. Rats were raised in an animal breeding area maintained at a temperature of 23±3° C., with a relative humidity of 50±20%, a ventilation frequency of 10 to 15 times/hr, for a lighting time of 12 hours (lights on at 8 a.m. to lights off at 8 p.m.), and with an illuminance of 150 to 300 Lux. As the administration, oral administration, the clinically planned route, was selected for evaluation, and, as the administration dose, the highest dose was set at 600 mg/kg, referring to the results of vonoprazan.

SMILES: CNCc1cn(S(=O)(=O)c2cccnc2)c(-c2ccc(F)cc2F)c1OC [Comparative Example 2, reference compound]
- concentration at 0.5 h [1]: 59.7 ng/mL
- concentration at 1 h [1]: 116 ng/mL
- concentration at 2 h [1]: 83.8 ng/mL
- concentration at 5 h [1]: 12.8 ng/mL
- concentration at 8 h [1]: 5.1 ng/mL

SMILES: [2H]C([2H])([2H])NCc1cn(S(=O)(=O)c2cccnc2)c(-c2ccc(F)cc2F)c1OC [Example 35, N-((5-(2,4-difluorophenyl)-4-methoxy-1-(pyridin-3-ylsulfonyl)-1H-pyrrol-3-yl)methyl)methan-d3-amine]
- concentration at 0.5 h [1]: 302 ng/mL
- concentration at 1 h [1]: 254 ng/mL
- concentration at 2 h [1]: 199 ng/mL
- concentration at 5 h [1]: 22.6 ng/mL
- concentration at 8 h [1]: 4.8 ng/mL
- blood concentration level higher as compared to Comparative Example 2 ([1]; 0.5 hours after administration): 5 times
- blood concentration level higher as compared to Comparative Example 2 ([1]; after 1 hour): at least 2 times
- blood concentration level higher as compared to Comparative Example 2 ([1]; after 2 hours): at least 2 times

SMILES: O=C(O)/C=C/C(=O)O.[2H]C([2H])([2H])NCc1cc(-c2ccccc2F)n(S(=O)(=O)c2ccc(F)cc2)c1 [Example 41, N-((5-(2-fluorophenyl)-1-((4-fluorophenyl)sulfonyl)-1H-pyrrol-3-yl)methyl)methane-d3-amine Fumarate]
- Survival rate (%) ([2]; single oral dose 50 mg/kg): 100%
- Survival rate (%) ([2]; single oral dose 200 mg/kg): 100%
- Survival rate (%) ([2]; single oral dose 400 mg/kg): 100%
- Survival rate (%) ([2]; single oral dose 600 mg/kg): 0%
